Positions count from the first letter of the chain named.
Assays:
Test in all cases: SIRT1 activation dose-response, OAcADPr assay with Ac-p53(W5) substrate
Type in all cases: biochemical
[1] = target: T1, full-length hSIRT1 V224A (Homo sapiens, UniProt Q96EB6, V224A); settings: for EC50: hSIRT1 V224A, activation dose-response, Ac-p53(W5) substrate
T1 construct: The following point mutants of full-length hSIRT1 were generated; His6 (C); made in house
T1 sequence (Q96EB6 1-747 V224A): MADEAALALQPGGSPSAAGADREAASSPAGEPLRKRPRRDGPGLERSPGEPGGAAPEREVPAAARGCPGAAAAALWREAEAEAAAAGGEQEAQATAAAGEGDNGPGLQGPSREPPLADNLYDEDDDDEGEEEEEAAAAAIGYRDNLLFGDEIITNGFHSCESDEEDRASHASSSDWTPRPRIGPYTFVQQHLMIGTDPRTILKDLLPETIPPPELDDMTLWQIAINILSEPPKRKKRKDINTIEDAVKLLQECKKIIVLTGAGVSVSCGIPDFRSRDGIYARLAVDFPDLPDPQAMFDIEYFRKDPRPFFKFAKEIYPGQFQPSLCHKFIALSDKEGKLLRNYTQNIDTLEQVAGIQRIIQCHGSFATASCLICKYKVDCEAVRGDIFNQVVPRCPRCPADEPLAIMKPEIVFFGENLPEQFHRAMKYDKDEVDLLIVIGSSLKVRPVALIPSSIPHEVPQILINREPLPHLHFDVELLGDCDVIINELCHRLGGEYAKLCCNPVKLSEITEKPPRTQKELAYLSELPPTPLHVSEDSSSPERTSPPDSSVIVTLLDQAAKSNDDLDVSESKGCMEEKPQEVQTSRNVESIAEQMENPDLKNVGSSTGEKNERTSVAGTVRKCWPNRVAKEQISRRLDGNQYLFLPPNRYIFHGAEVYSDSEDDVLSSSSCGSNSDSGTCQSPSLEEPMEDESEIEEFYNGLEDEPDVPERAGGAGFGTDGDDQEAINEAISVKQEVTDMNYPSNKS

[2] = target: T2, full-length hSIRT1 I227A (Homo sapiens, UniProt Q96EB6, I227A); settings: for EC50: hSIRT1 I227A, activation dose-response, Ac-p53(W5) substrate
T2 construct: The following point mutants of full-length hSIRT1 were generated; His6 (C); made in house
T2 sequence (Q96EB6 1-747 I227A): T1 sequence (Q96EB6 1-747 V224A) with A224V, I227A

[3] = target: T3, full-length hSIRT1 E230K (Homo sapiens, UniProt Q96EB6, E230K); settings: for EC50: hSIRT1 E230K, activation dose-response, Ac-p53(W5) substrate
T3 construct: His6 (C); made in house
T3 sequence (Q96EB6 1-747 E230K): T1 sequence (Q96EB6 1-747 V224A) with A224V, E230K

| EC50 fold shift (mutant EC50/wild-type EC50) [1] | RVmax fold shift = (wild-type RVmax−1)/(mutant RVmax−1) [1] | EC50 [1] [µM] | EC50 fold shift (mutant EC50/wild-type EC50) [2] | RVmax fold shift = (wild-type RVmax−1)/(mutant RVmax−1) [2] | EC50 [2] [µM] | EC50 fold shift (mutant EC50/wild-type EC50) [3] | RVmax fold shift = (wild-type RVmax−1)/(mutant RVmax−1) [3] | EC50 [3] [µM] | Compound |
| --- | --- | --- | --- | --- | --- | --- | --- | --- | --- |
| 1.18 | 0.72 | 2.6 | 3.07 | 0.85 | 6.76 | 1.46 | 8.67 | 3.21 | O=C(Nc1ccccn1)N1c2nc(-c3cccc(C(F)(F)F)c3)ccc2N2CC[C@H]1C2 [Example 7] |
| 1.87 | 0.79 | 0.9 | 6.21 | 1.06 | 2.98 | 1.46 | 5.36 | 0.7 | Cc1cnc2c(NC(=O)N3c4nc(-c5cccc(C(F)(F)F)c5)ccc4N4CC[C@H]3C4)cccc2n1 [Example 8] |

— patent US9765075B2, “Substituted bridged urea analogs as sirtuin modulators” (GLAXOSMITHKLINE LLC, priority 2013, dated 2017)
